Experimental data as given in patent US20220289788A1, “3-HYDROXY-5-PREGNANE-20-ONE DERIVATIVE AND USE THEREOF” (priority 2019, published 2022).
Structures can show the parent of a compound that is named as a salt.

Columns and labels:
[1] = Pharmacokinetic testing after single oral administration, allopregnanolone detected in plasma; format: in vivo; details: male SD rats, i.g. 20 mg/kg (as allopregnanolone)
Description: The object of this experiment is to study the single oral administration of each compound solution of the present invention, and an allopregnanolone solution, to detect allopregnanolone, an active ingredient in plasma, and to evaluate its pharmacokinetic (PK) properties in SD rats. The solution was to dissolve each compound in an aqueous solution containing 5% Tween 20.
The male SD rats used in this embodiment, weighing 180-220 g, were purchased from Shanghai SLAC Laboratory Animal Co., Ltd. All animals were fasted overnight, until 4 hours after administration.
The experimental SD rats were grouped by randomized block design, and 5 rats in each group, namely allopregnanolone group, compound 1 hydrochloride group, compound 2 hydrochloride group, compound 14 hydrochloride group, and compound 15 hydrochloride group. Each group was administered by irrigation (i.g.) at a dose of 20 mg/kg (as measured by allopregnanolone).
0.0833 h, 0.25 h, 0.5 h, 1 h, 2 h, 3 h, 4 h, 6 h, 9 h, 12 h, 24 h after the administration, about 0.6 mL of blood sample was collected from peripheral veins and transferred to a commercial centrifuge tube containing 0.85 to 1.15 mg of K2 EDTA anticoagulant (Jiangsu Kangjian Medical Products Co., Ltd.). Within 30 minutes after blood collection, plasma was centrifuged (centrifugation at 3,000 g for 10 minutes at approximately 4° C.). The plasma was placed in a labeled polypropylene tube, quick-frozen in dry ice, then stored in an ultra-low temperature freezer at −60° C. or lower for testing. LC-MS/MS bioassay was used to detect the concentration of drug in SD rat plasma. Blood concentration-time data was analyzed using a non-compartment model and a WinNonlin software package (version6.3 or later), as shown in Table-3.

[2] = cited from earlier work
physchem = details: 25 °C, thermodynamic from solid
Method: An appropriate amount of the compound of the present invention was weighed, prepared into solutions with different media, respectively, stirred in a constant temperature water bath magnetometer at 25° C. for about 24 hours, and filtered through a 0.22 μm water filter membrane. An appropriate amount of filtrate was diluted to a certain concentration with methanol, and used as a test solution. The concentration of the test solution was determined by HPLC with a UV detector using methanol as a blank control solution.
(2) Reference solution: 5 mg of reference substance was weighed precisely, placed in a 10 mL measuring flask, dissolved with methanol and diluted to scale, and mixed well.
(3) Sample solution: An appropriate amount of sample solution was pipetted, diluted with methanol to about 0.5 mg/mL (determined by the concentration of each sample), and mixed well.

[3] = Stability of compound in 5% glucose solution (HPLC purity over time); format: physicochemical; details: about 1 mg/g, room temperature
Method: An appropriate amount of the derivative of the present invention was weighed respectively, dissolved in a 5% glucose solution and prepared into a solution with a concentration of about 1 mg/g.
(1) Blank solution: Methanol.
(2) Sample solution: A suitable solution was taken and filtered through a 0.22 μm filter membrane.

[4] = pH 4.5 buffer solution, pH 4.5, aqueous buffer

| Structure (SMILES) | AUC0-last [1] [ng′ hours/mL] | solubility at 24 h (physchem; [4]) [µg/mL] | solubility at 24 h (physchem; water) [µg/mL] | also measured |
| --- | --- | --- | --- | --- |
| CC(=O)[C@H]1CC[C@H]2[C@@H]3CC[C@H]4C[C@H](O)CC[C@]4(C)[C@H]3CC[C@]12C [Allopregnanolone, allopregnanolone, reference compound] | 24.9 |  |  | human plasma half-life period [2]: about 45 minutes |
| CC(=O)[C@H]1CCC2[C@@H]3CCC4CC(OC(=O)C(NC(=O)CN)C(C)C)CC[C@]4(C)C3CC[C@@]21C (stereo partly drawn) [Compound 2 hydrochloride] | 196.0 | > 10000 | > 10000 | Purity ([3]; 0 hour): 95.00%; Purity ([3]; 1 hour): 94.59%; Purity ([3]; 3 hours): 94.50%; Purity ([3]; 5 hours): 94.05%; Purity ([3]; 8 hours): 94.33% |
| CC(=O)[C@H]1CCC2[C@@H]3CCC4CC(OC(=O)C(NC(=O)C5CCCN5)C(C)C)CC[C@]4(C)C3CC[C@@]21C (stereo partly drawn) [Compound 4 hydrochloride] |  |  | 190 |  |
| CC(=O)[C@H]1CCC2[C@@H]3CCC4CC(OC(=O)C(NC(=O)C(N)Cc5c[nH]c6ccccc56)C(C)C)CC[C@]4(C)C3CC[C@@]21C (stereo partly drawn) [Compound 5 hydrochloride] |  |  | 70 |  |
| CC(=O)[C@H]1CC[C@H]2[C@@H]3CC[C@H]4C[C@H](OC(=O)[C@@H](NC(=O)C(C)N)C(C)C)CC[C@]4(C)[C@H]3CC[C@]12C (stereo partly drawn) [Compound 6 hydrochloride] |  |  | 5680 |  |
| CC(=O)[C@H]1CC[C@H]2[C@@H]3CC[C@H]4CC(OC(=O)C(NC(=O)C(N)CC(C)C)C(C)C)CC[C@]4(C)[C@H]3CC[C@]12C (stereo partly drawn) [Compound 7 hydrochloride] |  |  | 7380 |  |
| CC(=O)[C@H]1CC[C@H]2[C@@H]3CC[C@H]4C[C@H](OC(=O)[C@H](C)NC(=O)[C@@H](N)C(C)C)CC[C@]4(C)[C@H]3CC[C@]12C [Compound 10 hydrochloride] |  |  |  | Purity ([3]; 0 hour): 99.12%; Purity ([3]; 1 hour): 99.09%; Purity ([3]; 3 hours): 99.04%; Purity ([3]; 5 hours): 98.05%; Purity ([3]; 8 hours): 97.89% |
| CC(=O)[C@H]1CC[C@H]2[C@@H]3CC[C@H]4C[C@H](OC(=O)[C@H](C)NC(=O)CN)CC[C@]4(C)[C@H]3CC[C@]12C [Compound 12 hydrochloride] |  | 1910 | 2620 |  |
| CC(=O)[C@H]1CC[C@H]2[C@@H]3CC[C@H]4C[C@H](OC(=O)[C@H](C)OC(=O)[C@@H](N)C(C)C)CC[C@]4(C)[C@H]3CC[C@]12C [Compound 13 hydrochloride] |  | 10 | 370 |  |
| CC(=O)[C@H]1CC[C@H]2[C@@H]3CC[C@H]4C[C@H](OC(=O)CNC(=O)[C@@H](N)C(C)C)CC[C@]4(C)[C@H]3CC[C@]12C [Compound 14 hydrochloride] | 150.2 | > 50000 | > 10000 |  |
| CC(=O)[C@H]1CC[C@H]2[C@@H]3CC[C@H]4C[C@H](OC(=O)CNC(=O)CN)CC[C@]4(C)[C@H]3CC[C@]12C [Compound 15 hydrochloride] | 166.3 |  | 1110 |  |
| CC(=O)[C@H]1CC[C@H]2[C@@H]3CC[C@H]4C[C@H](OC(=O)CNC(=O)[C@H](C)N)CC[C@]4(C)[C@H]3CC[C@]12C [Compound 23 hydrochloride] |  | 970 | 640 |  |
